Source: ChEMBL document CHEMBL1932937, “Inhibition of noroviruses by piperazine derivatives” (Bioorg Med Chem Lett, 2012)

What was measured:
Norovirus = assay: Antiviral activity against Norovirus infected in human HG23 cells assessed as inhibition of viral replication after 24 hrs; format: functional; conditions: HG23, 24 h, read-out: ED50 (the source's name)
[1] = Cytotoxicity against human HG23 cells after 48 hrs; format: cell-based; conditions: read-out: TD50
[2] = Therapeutic index, ratio of TD50 for HG23 cells to ED50 for Norovirus infected in human HG23 cells; format: cell-based; conditions: read-out: Ratio TD50/ED50

EC50 (Norovirus) | SMILES | CC50 at 48 h [1] | selectivity ratio [2]
8.2 µM | O=C(c1ccccc1Oc1ccccc1)N1CCN(Cc2ccccc2)CC1 | 18.5 µM | –
7.2 µM | COc1ccc(CN2CC(C(=O)N3CCN(Cc4ccccc4)CC3)CC2=O)cc1 (stereo not drawn) | 155 µM | –
> 20 µM | O=C(c1cn(Cc2ccc(F)cc2)nn1)N1CCN(Cc2ccccc2)CC1 | – | –
> 20 µM | O=C(c1ccco1)N1CCN(Cc2ccccc2)CC1 | – | –
> 20 µM | O=C(c1cn(Cc2cccc(F)c2)nn1)N1CCN(Cc2ccccc2)CC1 | – | –
4.5 µM | COc1ccc(C(=O)N2CCN(Cc3cccc(Oc4ccccc4)c3)CC2)cc1 | 25.4 µM | –
> 20 µM | O=C(c1cccc(F)c1)N1CCN(Cc2ccccc2)CC1 | – | –
> 20 µM | O=C1CC(C(=O)N2CCN(Cc3ccccc3)CC2)CN1Cc1ccco1 (stereo not drawn) | – | –
> 20 µM | COC(=O)c1ccc(Cn2cc(C(=O)N3CCN(Cc4ccccc4)CC3)nn2)cc1 | – | –
5.6 µM | c1ccc(Oc2cccc(CN3CCN(Cc4cccc(Oc5ccccc5)c4)CC3)c2)cc1 | 75.4 µM | –
> 20 µM | O=C1CC(C(=O)N2CCN(Cc3ccccc3)CC2)CN1CCc1ccccc1 (stereo not drawn) | – | –
> 20 µM | O=C(N1CCOCC1)N1CCN(Cc2ccccc2)CC1 | – | –
7.8 µM | CCCOc1ccc(C(=O)N2CCN(Cc3ccccc3)CC2)cc1 | 95.3 µM | –
> 20 µM | N#Cc1ccc(C(=O)N2CCN(Cc3cccc(Oc4ccccc4)c3)CC2)cc1 | – | –
8.5 µM | CC(C)Oc1ccc(CN2CCN(Cc3cccc(Oc4ccccc4)c3)CC2)cc1 | 31.5 µM | –
> 20 µM | O=C(c1ccc(O)cc1)N1CCN(Cc2cccc(Oc3ccccc3)c2)CC1 | – | –
> 20 µM | O=C1CC(C(=O)N2CCN(Cc3ccccc3)CC2)CN1Cc1ccccc1 (stereo not drawn) | – | –
12.5 µM | N#Cc1ccc(S(=O)(=O)N2CCN(Cc3cccc(Oc4ccccc4)c3)CC2)cc1 | 119 µM | –
8.5 µM | COc1ccc(Cn2cc(C(=O)N3CCN(Cc4ccccc4)CC3)nn2)cc1 | 62.5 µM | –
> 20 µM | Oc1cccc(CN2CCN(Cc3cccc(Oc4ccccc4)c3)CC2)c1 | – | –
> 20 µM | O=C(c1ccc(Oc2ccccc2)cc1)N1CCN(Cc2ccccc2)CC1 | – | –
> 20 µM | CC(C)Oc1ccc(C(=O)N2CCN(Cc3cccc(Oc4ccccc4)c3)CC2)cc1 | – | –
3.8 µM | O=C(c1ccc(Oc2ccccc2)cc1)N1CCN(Cc2cccc(Oc3ccccc3)c2)CC1 | 23.5 µM | –
2.8 µM | O=C(c1cccc(Oc2ccccc2)c1)N1CCN(Cc2ccccc2)CC1 | 11.4 µM | –
> 20 µM | O=C(c1cn(CSc2ccccc2)nn1)N1CCN(Cc2ccccc2)CC1 | – | –
5.5 µM | O=C(c1cccc(Oc2ccccc2)c1)N1CCN(Cc2cccc(Oc3ccccc3)c2)CC1 | 15.6 µM | –
6.7 µM | CCCCS(=O)(=O)N1CCN(Cc2cccc(Oc3ccccc3)c2)CC1 | 121 µM | 18
> 20 µM | O=C(c1cccc(Cl)c1)N1CCN(Cc2ccccc2)CC1 | – | –

SMILES | EC50 (Norovirus) | CC50 at 48 h [1] | selectivity ratio [2]
COc1ccc(CC(=O)N2CCN(Cc3ccccc3)CC2)cc1 | > 20 µM | – | –
O=C(Cc1ccc(Cl)cc1)N1CCN(Cc2cccc(Oc3ccccc3)c2)CC1 | > 20 µM | – | –
